How the values were obtained:
[1] = recently discovered; Cretton et al 1991; cited from earlier work
[2] = pharmacokinetics and metabolism of AZT: hepatic catabolites; type: in vivo, human; conditions: in addition to GAZT
[3] = tested on: Human Immunodeficiency Virus (HIV); conditions: HIV infected patients; cited from earlier work
bone marrow cells = conditions: AZT treatment; cited from earlier work
[4] = tested on: granulocyte macrophage colony-forming units (CFU-GM); experiment: toxicity to granulocyte macrophage colony-forming units; type: cell-based; conditions: compared with AZT
[5] = tested on: erythroid burst-forming units (BFU-E); experiment: toxicity to erythroid burst-forming units; type: cell-based; conditions: compared with AZT
[6] = tested on: antiviral activity of AZT; experiment: effect of AMT on antiviral activity of AZT

## Cc1cn([C@H]2C[C@H](N=[N+]=[N-])[C@@H](CO)O2)c(=O)[nH]c1=O [AZT, 3'-azido-3'-deoxythymidine]
[1]
  hepatic catabolite of AZT: 3'-amino-3'-deoxythymidine (AMT)
[2]
  hepatic catabolites of AZT: 3'-amino-3'-deoxythymidine (AMT) and its 5'-O-glucuronide(GAMT)
[3]
  clinical benefits: increased survival, decreased number of opportunistic infections, and partial improvement in neurologic manifestations
Bone marrow cells
  toxicity to bone marrow cells: toxicity to bone marrow cells, manifested by anemia and neutropenia

## Cc1cn([C@H]2C[C@H](N)[C@@H](CO)O2)c(=O)[nH]c1=O [AMT, 3'-amino-3'-deoxythymidine]
[4]
  toxicity to CFU-GM relative to AZT: many more times toxic
[5]
  toxicity to BFU-E relative to AZT: many more times toxic
[6]; concentrations as low as a 1:1 molar ratio with AZT
  effect on the antiviral activity of AZT: adverse effect on the antiviral activity of AZT
[6]; stated as believed, no concentration given
  interference with the antiviral activity of AZT: believed to interfere with the antiviral activity of AZT
